Test results: patent publication US20250296937A1, “CYCLIC BISBENZYL TETRAHYDROISOQUINOLINE COMPOUND, AND PREPARATION METHOD THEREFOR AND USE THEREOF” (Shanghai Institute of Materia Medica, Chinesse Academy of …, priority 2021, published 2025)
Where two headings read alike, the source gives them in different places.

Legend:
[1] = Cytotoxicity test on Vero E6 cells (CCK8); type: cell-based; settings: African green monkey; Vero E6 cells, CCK8 kit
Method: (§1) In this embodiment, the half toxicity concentration of each embodiment on Vero E6 cells was determined by CCK8 kit analysis (CC50).

[2] = tested on: 2019 novel coronavirus (SARS-CoV-2) original strain; test: Replication inhibitory activity against SARS-CoV-2 original strain in Vero E6 cells (qRT-PCR); type: cell-based; settings: Severe acute respiratory syndrome coronavirus 2, Vero C1008; Vero E6 cells, MOI 0.01, 24 h p.i., viral copy number by qRT-PCR; read-out: Inhibition against viral replication of the original strain EC50
hERG potassium channel = biological target: T1, hERG potassium channel (Homo sapiens, UniProt Q12809); test: hERG potassium channel whole-cell membrane clamp in CHO cells; type: cell-based; settings: CHO cells stably expressing hERG, whole-cell membrane clamp
T1 construct: expressed in transfected cells
Method: Compounds were given for at least 1 min for each tested concentration, and at least 2 cells (n≥2) were tested per concentration.

HCoV OC43 virus = test: Inhibition against HCoV OC43 virus replication; type: cell-based, human coronavirus HCoV OC43; settings: Betacoronavirus 1, OC43
Vero E6 cells = test: Cytotoxicity test on Vero E6 cells (CCK8); type: cell-based
Method: as §1

[3] = biological target: novel coronavirus envelope protein (2-E) ion channel (Severe acute respiratory syndrome coronavirus 2, UniProt P0DTC4); test: Novel coronavirus envelope protein (2-E) ion channel activity test, planar lipid bilayer (BLM); type: biochemical, SARS-CoV-2; settings: room temperature, 1, 10, 50, 100 μM, read-out: Inhibition against 2-E ion channels IC50
Sequence of novel coronavirus envelope protein (2-E) ion channel (P0DTC4 whole entry, looked up): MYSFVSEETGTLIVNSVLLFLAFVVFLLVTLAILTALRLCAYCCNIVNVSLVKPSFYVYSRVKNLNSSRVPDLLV

T1 sequence (Q12809 whole entry): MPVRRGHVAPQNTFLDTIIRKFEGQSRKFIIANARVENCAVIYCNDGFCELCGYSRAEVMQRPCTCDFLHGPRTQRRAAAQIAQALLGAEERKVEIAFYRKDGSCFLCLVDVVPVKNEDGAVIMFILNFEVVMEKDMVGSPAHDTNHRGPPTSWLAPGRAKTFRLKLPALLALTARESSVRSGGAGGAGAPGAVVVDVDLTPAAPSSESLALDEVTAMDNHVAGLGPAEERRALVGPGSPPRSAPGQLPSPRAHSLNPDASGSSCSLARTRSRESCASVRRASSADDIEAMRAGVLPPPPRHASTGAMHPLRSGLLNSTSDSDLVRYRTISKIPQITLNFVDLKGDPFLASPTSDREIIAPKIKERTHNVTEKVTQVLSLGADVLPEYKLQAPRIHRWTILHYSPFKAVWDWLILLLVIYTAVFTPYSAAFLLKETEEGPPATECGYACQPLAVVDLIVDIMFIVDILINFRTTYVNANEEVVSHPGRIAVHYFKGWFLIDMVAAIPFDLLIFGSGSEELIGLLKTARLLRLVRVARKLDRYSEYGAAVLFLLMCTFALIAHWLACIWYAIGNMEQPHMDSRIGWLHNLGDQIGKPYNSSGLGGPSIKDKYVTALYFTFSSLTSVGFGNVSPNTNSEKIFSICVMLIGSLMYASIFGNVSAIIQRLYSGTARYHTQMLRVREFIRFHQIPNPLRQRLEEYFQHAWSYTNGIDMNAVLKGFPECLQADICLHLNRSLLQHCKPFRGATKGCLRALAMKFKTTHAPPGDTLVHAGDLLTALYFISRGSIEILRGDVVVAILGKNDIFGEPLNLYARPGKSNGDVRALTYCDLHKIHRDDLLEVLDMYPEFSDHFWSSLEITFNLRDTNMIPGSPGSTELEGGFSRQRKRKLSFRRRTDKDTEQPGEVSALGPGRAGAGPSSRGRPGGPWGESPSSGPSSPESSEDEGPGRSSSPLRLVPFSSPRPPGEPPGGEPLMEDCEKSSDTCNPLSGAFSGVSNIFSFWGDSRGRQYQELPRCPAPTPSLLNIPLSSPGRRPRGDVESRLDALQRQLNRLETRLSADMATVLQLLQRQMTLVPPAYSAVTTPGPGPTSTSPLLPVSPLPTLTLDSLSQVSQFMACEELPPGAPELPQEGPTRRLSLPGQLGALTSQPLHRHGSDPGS

| Compound | IC50 [1] [µM] | EC50 [2] [µM] | IC50 (hERG potassium channel) [µM] | further results |
| --- | --- | --- | --- | --- |
| COc1cc2c3cc1Oc1c(OC)c(OC)cc4c1[C@H](Cc1ccc(cc1)Oc1cc(ccc1C1CC1)C[C@H]3N(C)CC2)N(C)CC4 [Compound 38] | 10 to 30 | 1 to 5 | – | – |
| COc1cc2c3cc1Oc1c(OC)c(OC)cc4c1[C@H](Cc1ccc(cc1)Oc1cc(ccc1C(C)O)C[C@H]3N(C)CC2)N(C)CC4 (some centres unmarked) [Compound 40] | 30 to 50 | 0.1 to 1 | – | – |
| COc1cc2c3cc1Oc1c(OC)c(OC)cc4c1[C@H](Cc1ccc(cc1)Oc1cccc(c1)C[C@H]3N(C)CC2)N(C)CC4 [Compound 33] | 10 to 30 | 0.1 to 1 | > 40 | EC50 (HCoV OC43 virus): 4.1 µM |
| COc1cc2c3cc1Oc1c(OC)c(OC)cc4c1[C@H](Cc1ccc(cc1)Oc1cc(ccc1C(=O)NCCOCCO)C[C@H]3N(C)CC2)N(C)CC4 [Compound 55] | > 100 | 1 to 5 | > 40 | – |
| COc1cc2c3cc1Oc1c(OC)c(OC)cc4c1[C@H](Cc1ccc(cc1)Oc1cc(ccc1C(=O)NC1CCC1)C[C@H]3N(C)CC2)N(C)CC4 [Compound 50] | 30 to 50 | 0.1 to 1 | 4.5 | – |
| COc1ccc2cc1Oc1ccc(cc1)C[C@H]1c3cc(c(OC)cc3CCN1C)Oc1c(OC)c(OC)cc3c1[C@H](C2)N(C)CC3 [tetrandrine, reference compound] | – | – | – | cytotoxicity (background statement) (Vero E6 cells): high cytotoxicity |
| COc1cc2c3cc1Oc1c(OC)c(OC)cc4c1[C@H](Cc1ccc(cc1)Oc1cc(ccc1C(=O)Nc1ccccc1)C[C@H]3N(C)CC2)N(C)CC4 [Compound 45] | 10 to 30 | 1 to 5 | > 20 | IC50 [3]: < 10 µM |
| COc1cc2c3cc1Oc1c(OC)c(OC)cc4c1[C@@H](Cc1ccc(O)c(c1)Oc1ccc(cc1)C[C@@H]3N(C)CC2)N(C)CC4 [berbamine, reference compound] | – | – | – | cytotoxicity (background statement) (Vero E6 cells; inventors' screening of natural products): high cytotoxicity |
| COc1ccc(NC(=O)c2ccc3cc2Oc2ccc(cc2)C[C@H]2c4c(cc(OC)c(OC)c4Oc4cc5c(cc4OC)CCN(C)[C@@H]5C3)CCN2C)cc1 [Compound 52] | 10 to 30 | 0.1 to 1 | – | – |
| COc1cc2c3cc1Oc1c(OC)c(OC)cc4c1[C@H](Cc1ccc(cc1)Oc1cc(ccc1C(=O)C1CC1)C[C@H]3N(C)CC2)N(C)CC4 [Compound 54] | 10 to 30 | 1 to 5 | – | – |
| CCCCCNC(=O)c1ccc2cc1Oc1ccc(cc1)C[C@H]1c3c(cc(OC)c(OC)c3Oc3cc4c(cc3OC)CCN(C)[C@@H]4C2)CCN1C [Compound 37] | 10 to 30 | 1 to 5 | > 20 | IC50 [3]: < 10 µM |
| COc1cc2c3cc1Oc1c(OC)c(OC)cc4c1[C@H](Cc1ccc(cc1)Oc1cc(ccc1C(=O)O)C[C@H]3N(C)CC2)N(C)CC4 [Compound 7] | > 50 | – | > 40 | IC50 [3]: 10 to 30 µM |
| CNC(=O)c1ccc2cc1Oc1ccc(cc1)C[C@H]1c3c(cc(OC)c(OC)c3Oc3cc4c(cc3OC)CCN(C)[C@@H]4C2)CCN1C [Compound 5] | > 50 | 1 to 10 | 9.4 | cytotoxicity on Vero E6 cells compared with oxyacanthine hydrochloride (Vero E6 cells; Vero E6 cells): weaker cytotoxicity than oxyacanthine hydrochloride |
| COc1cc2c3cc1Oc1c(OC)c(OC)cc4c1[C@H](Cc1ccc(cc1)Oc1cc(ccc1C(C)=O)C[C@H]3N(C)CC2)N(C)CC4 [Compound 19] | 30 to 50 | 0.5 to 1.5 | – | – |
| COc1cc2c3cc1Oc1c(OC)c(OC)cc4c1[C@H](Cc1ccc(cc1)Oc1cc(ccc1C)C[C@H]3N(C)CC2)N(C)CC4 [Compound 35] | 10 to 30 | 1 to 5 | – | – |
| COc1cc2c3cc1Oc1c(OC)c(OC)cc4c1[C@H](Cc1ccc(cc1)Oc1cc(ccc1C(=O)NC(C)C)C[C@H]3N(C)CC2)N(C)CC4 [Compound 48] | 10 to 30 | 0.1 to 1 | – | – |
| COc1cc2c3cc1Oc1c(OC)c(OC)cc4c1[C@H](Cc1ccc(cc1)Oc1cc(cc5[nH]c(=O)oc15)C[C@H]3N(C)CC2)N(C)CC4 [Compound 17] | 10 to 30 | 0.1 to 1 | – | – |
| COc1cc2c3cc1Oc1c(OC)c(OC)cc4c1[C@H](Cc1ccc(cc1)Oc1cc(ccc1CO)C[C@H]3N(C)CC2)N(C)CC4 [Compound 9] | > 50 | 0.5 to 1.5 | – | IC50 [3]: 10 to 30 µM; EC50 (HCoV OC43 virus): 3 µM |
| C=C(C)c1ccc2cc1Oc1ccc(cc1)C[C@H]1c3c(cc(OC)c(OC)c3Oc3cc4c(cc3OC)CCN(C)[C@@H]4C2)CCN1C [Compound 34] | 10 to 30 | 0.5 to 1.5 | – | IC50 [3]: < 10 µM |
| COc1cc2c3cc1Oc1c(OC)c(OC)cc4c1[C@H](Cc1ccc(cc1)Oc1cc(ccc1C(=O)NC1CCCC1)C[C@H]3N(C)CC2)N(C)CC4 [Compound 22] | 10 to 30 | 0.5 to 1.5 | – | – |
| COc1cc2c3cc1Oc1c(OC)c(OC)cc4c1[C@H](Cc1ccc(cc1)Oc1cc(ccc1C(=O)Nc1cccnc1)C[C@H]3N(C)CC2)N(C)CC4 [Compound 51] | 10 to 30 | 0.1 to 1 | – | – |
| COc1cc2c3cc1Oc1c(OC)c(OC)cc4c1[C@H](Cc1ccc(cc1)Oc1cc(ccc1C(=O)NC15CC6CC(CC(C6)C1)C5)C[C@H]3N(C)CC2)N(C)CC4 [Compound 49] | 5 to 10 | 0.1 to 1 | – | – |
